In the CheMixHub viscosity set:
± gives the uncertainty stated by the source.

Test: xn = mol fraction of the nth substance listed

CCCCCCCC + CC(C)O
viscosity [mPa·s]
Settings	293.15 K	298.15 K	303.15 K	308.15 K
101 kPa, x2 = 0.0569	–	0.515 ± 0.005	–	0.446 ± 0.005
101 kPa, x2 = 0.1093	–	0.518 ± 0.005	–	0.45 ± 0.005
101 kPa, x2 = 0.1441	–	0.524 ± 0.005	–	0.451 ± 0.005
101 kPa, x2 = 0.2343	–	0.542 ± 0.005	–	0.466 ± 0.005
101 kPa, x2 = 0.3228	–	0.568 ± 0.005	–	0.486 ± 0.005
101 kPa, x2 = 0.3517	–	0.579 ± 0.006	–	0.497 ± 0.005
101 kPa, x2 = 0.4196	–	0.611 ± 0.006	–	0.523 ± 0.005
101 kPa, x2 = 0.5016	–	0.665 ± 0.006	–	0.561 ± 0.005
101 kPa, x2 = 0.5603	–	0.717 ± 0.006	–	0.601 ± 0.006
101 kPa, x2 = 0.6122	–	0.773 ± 0.007	–	0.643 ± 0.006
101 kPa, x2 = 0.7012	–	0.9 ± 0.008	–	0.732 ± 0.006
101 kPa, x2 = 0.7937	–	1.088 ± 0.009	–	0.877 ± 0.007
101 kPa, x2 = 0.9122	–	1.496 ± 0.012	–	1.177 ± 0.009
101 kPa, x2 = 0.9475	–	1.68 ± 0.013	–	1.315 ± 0.01
101.32 kPa, x2 = 0.0518	0.539 ± 0.008	0.507 ± 0.007	0.476 ± 0.007	–
101.32 kPa, x2 = 0.0896	0.542 ± 0.008	0.51 ± 0.007	0.479 ± 0.007	–
101.32 kPa, x2 = 0.212	0.562 ± 0.008	0.526 ± 0.007	0.494 ± 0.007	–
101.32 kPa, x2 = 0.282	0.58 ± 0.008	0.542 ± 0.008	0.507 ± 0.007	–
101.32 kPa, x2 = 0.4103	0.644 ± 0.009	0.596 ± 0.008	0.552 ± 0.008	–
101.32 kPa, x2 = 0.6027	0.83 ± 0.011	0.752 ± 0.01	0.685 ± 0.009	–
101.32 kPa, x2 = 0.6988	0.985 ± 0.013	0.883 ± 0.012	0.795 ± 0.011	–
101.32 kPa, x2 = 0.7988	1.225 ± 0.017	1.088 ± 0.014	0.967 ± 0.013	–
101.32 kPa, x2 = 0.9007	1.624 ± 0.022	1.429 ± 0.019	1.25 ± 0.016	–
101.32 kPa, x2 = 0.9496	1.961 ± 0.026	1.69 ± 0.022	1.482 ± 0.019	–

[Li+].[OH-] + O
viscosity [mPa·s], 101 kPa
Settings	x1 = 0.0089	x1 = 0.02284	x1 = 0.0263	x1 = 0.0385	x1 = 0.0513	x1 = 0.075	x1 = 0.0776	x1 = 0.08062
298.15 K	–	1.245 ± 0.037	–	1.602 ± 0.048	–	–	–	3.29 ± 0.099
308.15 K	–	0.996 ± 0.03	–	1.261 ± 0.038	–	–	–	2.467 ± 0.074
323.15 K	0.609 ± 0.018	0.748 ± 0.022	0.778 ± 0.024	0.931 ± 0.028	1.114 ± 0.034	1.596 ± 0.047	1.66 ± 0.04	1.743 ± 0.052

O=[N+]([O-])c1ccccc1 + OCCOCCOCCO
viscosity [mPa·s], 101 kPa
Settings	298.15 K	308.15 K
x2 = 0.0465	2.086 ± 0.098	1.759 ± 0.083
x2 = 0.1495	2.91 ± 0.13	2.342 ± 0.11
x2 = 0.2501	3.999 ± 0.18	3.087 ± 0.14
x2 = 0.3505	5.455 ± 0.23	4.049 ± 0.18
x2 = 0.4432	7.222 ± 0.29	5.184 ± 0.23
x2 = 0.4957	8.443 ± 0.33	5.954 ± 0.25
x2 = 0.5486	9.864 ± 0.37	6.838 ± 0.28
x2 = 0.6486	13.17 ± 0.47	8.857 ± 0.34
x2 = 0.7501	17.53 ± 0.61	11.47 ± 0.42
x2 = 0.8489	23 ± 0.78	14.69 ± 0.52
x2 = 0.94	29.37 ± 0.98	18.4 ± 0.64

C1CCC2CCCCC2C1 (stereo not given) + COC(C)(C)C
303.15 K, 101 kPa
Settings	viscosity [mPa·s]
x2 = 0.1134	1.739
x2 = 0.184	1.547
x2 = 0.2577	1.367
x2 = 0.3906	1.089
x2 = 0.4774	0.935
x2 = 0.5234	0.863
x2 = 0.6441	0.694
x2 = 0.7771	0.543
x2 = 0.8937	0.431

ClC(Cl)=C(Cl)Cl + C1CCCCC1
303.15 K, 101 kPa
Settings	viscosity [mPa·s]
x1 = 0.1695	0.762 ± 0.017
x1 = 0.2317	0.777 ± 0.007
x1 = 0.2698	0.75 ± 0.016
x1 = 0.3794	0.742 ± 0.014
x1 = 0.4194	0.74 ± 0.014
x1 = 0.4306	0.75 ± 0.007
x1 = 0.4966	0.738 ± 0.013
x1 = 0.5117	0.751 ± 0.007
x1 = 0.5532	0.741 ± 0.012
x1 = 0.5969	0.751 ± 0.007
x1 = 0.6182	0.746 ± 0.011
x1 = 0.6612	0.758 ± 0.007
x1 = 0.7242	0.764 ± 0.01
x1 = 0.7644	0.771 ± 0.007
x1 = 0.8345	0.775 ± 0.007
x1 = 0.8383	0.781 ± 0.009
x1 = 0.9204	0.8 ± 0.008
